We go through 6 compounds from article PMC8130918 (PLoS Pathogens, 2021).

The pIC50 is the negative decadic logarithm of the IC50, by convention in mol/L.

pEC50, pIC50: −log10 of the molar value. Where “and” joins values, the source holds several entries; their conditions need not be identical. Identical values can stand only once.

For assay [1], the target named is RSV L-P complex (Human respiratory syncytial virus A, UniProt P28887). In words: MTase activity inhibition, filter-binding assay with the RSV L-P complex. Type of assay: biochemical, human RSV (strain A2). The conditions noted are these: 60 nM RSV L-P complex, 1.8 μM GpppG-RSV9 RNA, 0.17 μM SAM and 0.8 μM 3H-SAM, pH 7.5, 30°C.
Assay [2] deals with RSV MTase-CTD (Human respiratory syncytial virus A, UniProt P28887). Kind of assay: MTase activity inhibition, filter-binding assay (3H-methyl transfer from SAM to GpppG-RSV9 RNA). The class given is biochemical. The conditions noted are these: for pIC50: 25 nM RSV MTase-CTD, 0.7 μM GpppG-RSV9 RNA, 2 μM SAM, pH 7.5, 30°C, Hill slope curve-fitting.
The subject of assay [3] is RSV. Kind of assay: Antiviral activity in cellular assay, replication of RSV in HeLa cells. Type of assay: cell-based, Respiratory syncytial virus. The conditions noted are these: before toxicity.
The test system of assay [4] is VSV. The conditions noted are these: BHK cells, plaque assay; read-out: half maximal effective concentration (EC50), VSV replication; cited from earlier work.

Sequence of RSV MTase-CTD (P28887 1755-2165): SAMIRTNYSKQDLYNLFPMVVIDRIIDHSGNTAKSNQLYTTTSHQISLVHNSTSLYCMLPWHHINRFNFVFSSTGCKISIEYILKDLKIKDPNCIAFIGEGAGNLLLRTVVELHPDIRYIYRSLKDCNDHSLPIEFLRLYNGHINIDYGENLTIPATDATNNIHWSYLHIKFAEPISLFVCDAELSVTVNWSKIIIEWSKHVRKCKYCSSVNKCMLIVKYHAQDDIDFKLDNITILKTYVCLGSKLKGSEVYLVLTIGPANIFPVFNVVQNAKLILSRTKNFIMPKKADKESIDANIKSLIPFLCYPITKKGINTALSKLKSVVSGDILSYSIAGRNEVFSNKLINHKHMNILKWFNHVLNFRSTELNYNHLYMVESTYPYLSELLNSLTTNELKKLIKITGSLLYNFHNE
Sequence of RSV L-P complex (P03421 whole entry): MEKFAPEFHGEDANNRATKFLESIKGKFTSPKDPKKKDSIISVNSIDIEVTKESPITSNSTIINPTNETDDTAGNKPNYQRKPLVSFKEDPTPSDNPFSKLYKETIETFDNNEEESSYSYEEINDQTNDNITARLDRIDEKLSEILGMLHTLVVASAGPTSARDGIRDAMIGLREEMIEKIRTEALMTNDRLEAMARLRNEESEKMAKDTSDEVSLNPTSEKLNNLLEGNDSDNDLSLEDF
Sequence of RSV L-P complex (P28887 whole entry): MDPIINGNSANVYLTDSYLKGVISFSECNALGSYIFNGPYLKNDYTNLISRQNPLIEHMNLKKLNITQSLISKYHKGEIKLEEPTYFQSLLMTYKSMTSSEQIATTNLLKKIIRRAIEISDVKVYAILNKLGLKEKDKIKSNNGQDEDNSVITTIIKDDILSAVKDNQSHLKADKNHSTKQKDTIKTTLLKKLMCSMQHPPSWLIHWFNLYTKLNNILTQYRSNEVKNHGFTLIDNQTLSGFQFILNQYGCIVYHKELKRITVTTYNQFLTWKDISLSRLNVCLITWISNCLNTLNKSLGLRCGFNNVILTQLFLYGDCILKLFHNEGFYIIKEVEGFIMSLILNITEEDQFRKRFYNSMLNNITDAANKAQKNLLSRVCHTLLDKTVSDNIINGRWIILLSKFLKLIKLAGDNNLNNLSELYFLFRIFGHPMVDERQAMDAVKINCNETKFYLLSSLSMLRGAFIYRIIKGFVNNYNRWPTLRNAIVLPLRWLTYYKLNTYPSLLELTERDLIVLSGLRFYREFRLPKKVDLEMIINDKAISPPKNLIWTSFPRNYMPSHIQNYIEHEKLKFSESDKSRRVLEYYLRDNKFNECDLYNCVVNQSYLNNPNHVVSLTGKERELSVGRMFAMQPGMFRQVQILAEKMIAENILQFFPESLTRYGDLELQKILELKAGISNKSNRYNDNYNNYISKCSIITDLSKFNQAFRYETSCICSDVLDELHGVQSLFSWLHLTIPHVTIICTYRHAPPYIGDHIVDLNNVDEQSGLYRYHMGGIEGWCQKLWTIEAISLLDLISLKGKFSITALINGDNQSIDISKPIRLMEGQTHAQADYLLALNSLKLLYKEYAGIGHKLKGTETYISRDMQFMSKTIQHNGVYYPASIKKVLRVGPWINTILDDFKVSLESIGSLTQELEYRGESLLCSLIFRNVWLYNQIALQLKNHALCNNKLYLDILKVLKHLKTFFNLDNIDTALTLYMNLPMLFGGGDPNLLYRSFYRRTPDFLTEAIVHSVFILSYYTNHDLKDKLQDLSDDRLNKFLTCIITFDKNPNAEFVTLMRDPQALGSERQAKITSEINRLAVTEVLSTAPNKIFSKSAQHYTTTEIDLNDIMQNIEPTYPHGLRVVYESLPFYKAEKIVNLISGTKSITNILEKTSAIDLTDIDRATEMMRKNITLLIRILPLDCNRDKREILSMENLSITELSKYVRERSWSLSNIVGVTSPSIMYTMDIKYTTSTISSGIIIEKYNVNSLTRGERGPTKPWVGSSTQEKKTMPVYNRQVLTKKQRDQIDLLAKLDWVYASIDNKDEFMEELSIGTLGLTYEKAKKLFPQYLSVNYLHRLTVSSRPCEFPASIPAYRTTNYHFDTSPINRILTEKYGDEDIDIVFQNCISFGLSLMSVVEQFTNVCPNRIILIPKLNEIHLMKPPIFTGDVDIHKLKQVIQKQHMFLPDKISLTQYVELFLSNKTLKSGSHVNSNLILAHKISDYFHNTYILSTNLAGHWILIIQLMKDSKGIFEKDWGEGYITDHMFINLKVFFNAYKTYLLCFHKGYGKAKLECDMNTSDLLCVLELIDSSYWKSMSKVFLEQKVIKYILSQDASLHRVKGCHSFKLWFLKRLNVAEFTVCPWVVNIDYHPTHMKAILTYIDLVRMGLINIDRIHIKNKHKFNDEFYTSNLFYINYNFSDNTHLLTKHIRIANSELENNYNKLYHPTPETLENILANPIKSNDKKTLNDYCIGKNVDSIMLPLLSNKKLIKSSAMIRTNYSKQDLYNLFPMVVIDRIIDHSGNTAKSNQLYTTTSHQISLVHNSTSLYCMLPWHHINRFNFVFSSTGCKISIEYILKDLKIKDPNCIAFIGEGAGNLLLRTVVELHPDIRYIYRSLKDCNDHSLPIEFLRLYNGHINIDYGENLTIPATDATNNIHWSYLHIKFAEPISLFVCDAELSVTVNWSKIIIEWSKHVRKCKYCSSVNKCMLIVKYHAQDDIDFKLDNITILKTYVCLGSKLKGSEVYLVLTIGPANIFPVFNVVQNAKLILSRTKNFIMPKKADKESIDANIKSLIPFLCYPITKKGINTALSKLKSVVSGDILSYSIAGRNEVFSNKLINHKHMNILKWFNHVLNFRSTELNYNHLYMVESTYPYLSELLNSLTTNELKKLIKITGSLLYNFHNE

For `Nc1ncnc2c1ncn2[C@@H]1O[C@H](CSCC[C@H](N)C(=O)O)[C@@H](O)[C@H]1O` [SAH, S-adenosyl homocysteine], the pIC50 in assay [1] was 4.42 and ~4.42; in assay [2] (3 h), 4.61 and ~4.61.

In the case of `Nc1ncnc2c1ncn2[C@@H]1O[C@H](C[C@@H](N)CC[C@H](N)C(=O)O)[C@@H](O)[C@H]1O` [sinefungin], the “inhibition of replication of RSV” value in assay [3] is recorded as “did not show inhibition activity”. The pIC50 is 5.01 and ~5.01 in assay [1]; 5.19 and ~5.19 in assay [2]. Moreover, the pEC50 in assay [4] is 3.66.

Turning to `Nc1nc2c(ncn2[C@@H]2O[C@H](COP(=O)(O)OP(=O)(O)OP(=O)(O)OC[C@H]3O[C@@H](n4cnc5c(=O)[nH]c(N)nc54)[C@H](O)[C@@H]3O)[C@@H](O)[C@H]2O)c(=O)[nH]1` [GpppG], in assay [2] ([…], methylation of GpppG-RSV9 RNA by FBA, 50 µM), the “inhibition of the activity of the RSV MTase-CTD” value came out at 50%.

`Cn1c[n+]([C@@H]2O[C@H](COP(=O)(O)OP(=O)([O-])O)[C@@H](O)[C@H]2O)c2nc(N)[nH]c(=O)c21` [^mGDP]: the “inhibitory activity on RSV MTase-CTD compared with GpppG” value in assay [2] is given as “lower inhibitory activity”.

Consider `Nc1nc2c(ncn2[C@@H]2O[C@H](COP(=O)(O)OP(=O)(O)OP(=O)(O)OC[C@H]3O[C@@H](n4cnc5c(N)ncnc54)[C@H](O)[C@@H]3O)[C@@H](O)[C@H]2O)c(=O)[nH]1` [GpppA], for which the “inhibitory activity on RSV MTase-CTD compared with GpppG” value in assay [2] was “lower inhibitory activity”.

As for `C[n+]1cn(C2OC(COP(=O)([O-])OP(=O)(O)OP(=O)(O)OCC3OC(n4cnc5c(N)ncnc54)C(O)C3O)C(O)C2O)c2nc(N)[nH]c(=O)c21` (stereo not shown) [^mGpppA], the “inhibitory activity on RSV MTase-CTD compared with GpppG” value in assay [2] is “lower inhibitory activity”.
